# Positions of bridges follow the written chain, without caps; N, C: chain ends. Residues, ends and D or L forms follow the SMILES beside them. Chains are numbered I, II in the order given.
# Assays:
# [1] = tested on: peripheral blood lymphocytes of mite-allergic patient; test: Blast formation of lymphocytes (3H-thymidine incorporation), mite-allergic patients; type: cell-based, human; details: 7 days culture with peptide, 3H-thymidine overnight; for radioactivity of 3H-thymidine incorporated into lymphocytes, Specimen 1: Specimen 1, lymphocytes of mite-allergic patient; for radioactivity of 3H-thymidine incorporated into lymphocytes, Specimen 2: Specimen 2, lymphocytes of mite-allergic patient; for radioactivity of 3H-thymidine incorporated into lymphocytes, Specimen 3: Specimen 3, lymphocytes of mite-allergic patient
# Method: (§1) Blast formation of lymphocytes by peptides of formula I-V of the present invention
# (§2) Peripheral blood lymphocytes collected from a mite-allergic patient or a non-allergic subject were suspended in a cell culture medium RPMI 1640 supplemented with 10% fetal bovine serum, so as to give a suspension of 1×10^6 cells/ml. Then, the suspension (0.2 ml/well) prepared above was placed in a 96-well microplate for cell culture and further, 20 μl each of a solution of one of the peptides of the formula I-V was placed in the respective wells. The lymphocytes thus treated were cultivated in a humidified atmosphere containing 5% CO2 at 37° C. for 7 days. Thereafter, 20 μl of a ^3 H-thymidine solution (12.5 μCi/ml) was added to each of the wells and allowed to react overnight. The peripheral blood lymphocytes were then collected onto filter, and the radioactivity was measured by a liquid scintillation counter.
# (§3) As is apparent from Table 1, virtually no incorporation of ^3 H-thymidine was recognized in the peripheral blood lymphocyte of a non-allergic subject, while a high radioactivity was detected from the peripheral blood lymphocytes of a mite-allergic patient.
# [2] = tested on: peripheral blood lymphocytes of non-allergic subject; test: Blast formation of lymphocytes (3H-thymidine incorporation), non-allergic subject; type: cell-based, human; details: Specimen 4, lymphocytes of non-allergic subject; 7 days culture with peptide, 3H-thymidine overnight
# Method: as §1, §2, §3
Molecule,"radioactivity of 3H-thymidine incorporated into lymphocytes, Specimen 1 [1]","radioactivity of 3H-thymidine incorporated into lymphocytes, Specimen 2 [1]","radioactivity of 3H-thymidine incorporated into lymphocytes, Specimen 3 [1]","radioactivity of 3H-thymidine incorporated into lymphocytes, Specimen 4 [2]"
"H-DQVDVKDCANNEIKK-OH [I, H-Asp-Gln-Val-Asp-Val-Lys-Asp-Cys-Ala-Asn-Asn-Glu-Ile-Lys-Lys-OH]",281 cpm,389 cpm,282 cpm,< 100 cpm
CC[C@H](C)[C@H](NC(=O)[C@H](C)NC(=O)[C@H](CSSC[C@H](NC(=O)[C@H](CC(=O)O)NC(=O)[C@H](CCCCN)NC(=O)[C@@H](NC(=O)[C@H](CC(=O)O)NC(=O)[C@@H](NC(=O)[C@H](CCC(N)=O)NC(=O)[C@@H](N)CC(=O)O)C(C)C)C(C)C)C(=O)N[C@@H](C)C(=O)N[C@@H](CC(N)=O)C(=O)N[C@@H](CC(N)=O)C(=O)N[C@@H](CCC(=O)O)C(=O)N[C@H](C(=O)N[C@@H](CCCCN)C(=O)N[C@@H](CCCCN)C(=O)O)[C@@H](C)CC)NC(=O)[C@H](C)NC(=O)[C@H](CC(C)C)NC(=O)[C@@H](NC(=O)CN)C(C)C)C(=O)N[C@@H](C)C(=O)N[C@H](C(=O)N[C@@H](Cc1c[nH]cn1)C(=O)N[C@@H](C)C(=O)N[C@@H](CCCCN)C(=O)N[C@H](C(=O)N[C@@H](CCCNC(=N)N)C(=O)N[C@@H](CC(=O)O)C(=O)O)[C@@H](C)CC)[C@@H](C)O [V] (I: H-DQVDVKDCANNEIKK-OH / II: H-GVLACAIATHAKIRD-OH; disulfide I:8-II:5),1457 cpm,430 cpm,179 cpm,< 100 cpm
CC[C@H](C)[C@H](NC(=O)[C@H](C)NC(=O)[C@H](CSSC[C@H](NC(=O)[C@H](C)NC(=O)[C@H](CC(C)C)NC(=O)[C@@H](NC(=O)CN)C(C)C)C(=O)N[C@@H](C)C(=O)N[C@H](C(=O)N[C@@H](C)C(=O)N[C@H](C(=O)N[C@@H](Cc1c[nH]cn1)C(=O)N[C@@H](C)C(=O)N[C@@H](CCCCN)C(=O)N[C@H](C(=O)N[C@@H](CCCNC(=N)N)C(=O)N[C@@H](CC(=O)O)C(=O)O)[C@@H](C)CC)[C@@H](C)O)[C@@H](C)CC)NC(=O)[C@H](C)NC(=O)[C@H](CC(C)C)NC(=O)[C@@H](NC(=O)CN)C(C)C)C(=O)N[C@@H](C)C(=O)N[C@H](C(=O)N[C@@H](Cc1c[nH]cn1)C(=O)N[C@@H](C)C(=O)N[C@@H](CCCCN)C(=O)N[C@H](C(=O)N[C@@H](CCCNC(=N)N)C(=O)N[C@@H](CC(=O)O)C(=O)O)[C@@H](C)CC)[C@@H](C)O [IV] (I: H-GVLACAIATHAKIRD-OH / II: H-GVLACAIATHAKIRD-OH; disulfide I:5-II:5),374 cpm,324 cpm,162 cpm,< 100 cpm
CC[C@H](C)[C@H](NC(=O)[C@H](CCC(=O)O)NC(=O)[C@H](CC(N)=O)NC(=O)[C@H](CC(N)=O)NC(=O)[C@H](C)NC(=O)[C@H](CSSC[C@H](NC(=O)[C@H](CC(=O)O)NC(=O)[C@H](CCCCN)NC(=O)[C@@H](NC(=O)[C@H](CC(=O)O)NC(=O)[C@@H](NC(=O)[C@H](CCC(N)=O)NC(=O)[C@@H](N)CC(=O)O)C(C)C)C(C)C)C(=O)N[C@@H](C)C(=O)N[C@@H](CC(N)=O)C(=O)N[C@@H](CC(N)=O)C(=O)N[C@@H](CCC(=O)O)C(=O)N[C@H](C(=O)N[C@@H](CCCCN)C(=O)N[C@@H](CCCCN)C(=O)O)[C@@H](C)CC)NC(=O)[C@H](CC(=O)O)NC(=O)[C@H](CCCCN)NC(=O)[C@@H](NC(=O)[C@H](CC(=O)O)NC(=O)[C@@H](NC(=O)[C@H](CCC(N)=O)NC(=O)[C@@H](N)CC(=O)O)C(C)C)C(C)C)C(=O)N[C@@H](CCCCN)C(=O)N[C@@H](CCCCN)C(=O)O [II] (I: H-DQVDVKDCANNEIKK-OH / II: H-DQVDVKDCANNEIKK-OH; disulfide I:8-II:8),219 cpm,125 cpm,158 cpm,< 100 cpm
"H-GVLACAIATHAKIRD-OH [III, H-Gly-Val-Leu-Ala-Cys-Ala-Ile-Ala-Thr-His-Ala-Lys-Ile-Arg-Asp-OH]",547 cpm,259 cpm,158 cpm,< 100 cpm
